For assay [1], the system named is BSA. As to conditions: SF, 298 K; cited from earlier work.
The target in assay [2] is bovine serum albumin (BSA) (Bos taurus, UniProt P02769). The assay is described as follows: biochemical. In kind it is binding.
Assay [3] relates to human serum albumin (HSA). As to conditions: SF, 298 K; cited from earlier work.
The test system of assay [4] is BSA. The following applies: CE, 298 K; cited from earlier work.
The subject of assay [5] is BSA. Set-up: method as in PMID 5677620. The following applies: SP, 310 K; cited from earlier work.
Assay [6] has as its system BSA. Set-up: method as in PMID 27098963. As to conditions: ED, 310 K; cited from earlier work.
Assay [7] concerns BSA. As to conditions: UC, cited from earlier work.
Assay [8] relates to human serum albumin (HSA). Details: method as in PMID 3664856. As to conditions: UC, 288 K; cited from earlier work.
Setting [9] is: 298 K, phosphate buffer pH 7.4, 0.05 M, BSA about 1 µM, 1:1 model, standard state 1 M, […], read-out: K∙10^−4 (binding constant with BSA, final corrected value) (converted).
Setting [10] is: 298 K, phosphate buffer pH 7.4, 0.05 M, BSA about 1 µM, 1:1 model, standard state 1 M, value is K multiplied by 10^−4, read-out: K∙10^−4 (binding constant with BSA, final corrected value) (converted).

Like-named read-outs stand apart in the source and are kept apart here.

Sequence of bovine serum albumin (BSA) (P02769 25-607): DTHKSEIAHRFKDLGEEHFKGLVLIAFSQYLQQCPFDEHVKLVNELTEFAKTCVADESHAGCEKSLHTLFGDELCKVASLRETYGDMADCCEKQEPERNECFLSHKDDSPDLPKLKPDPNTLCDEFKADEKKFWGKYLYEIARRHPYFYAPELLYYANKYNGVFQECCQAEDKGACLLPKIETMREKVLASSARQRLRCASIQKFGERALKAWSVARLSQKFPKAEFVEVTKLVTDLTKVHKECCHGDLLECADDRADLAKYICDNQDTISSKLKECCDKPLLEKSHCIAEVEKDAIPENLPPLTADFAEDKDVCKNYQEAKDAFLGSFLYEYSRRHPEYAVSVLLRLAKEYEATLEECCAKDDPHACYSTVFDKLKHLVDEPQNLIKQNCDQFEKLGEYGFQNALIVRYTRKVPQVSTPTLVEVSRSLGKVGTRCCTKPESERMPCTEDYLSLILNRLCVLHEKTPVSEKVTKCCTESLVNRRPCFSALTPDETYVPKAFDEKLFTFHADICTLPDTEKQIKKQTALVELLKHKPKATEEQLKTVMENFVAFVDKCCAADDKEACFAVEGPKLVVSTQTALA

As to `O=C(O)c1ccc(O)cc1O` [2,4-dihydroxybenzoic acid], the “K·10^−4 BSA” value in the assay on BSA [1] is <0.1 (SF) [11]. Moreover, the Kd in assay [2] is 32.3 µM. In addition, the “K·10^−4 HSA” value in assay [3] is 0.16 (SF) [10].

Consider `O=C(O)c1ccccc1O` [2-hydroxybenzoic acid], for which the “K·10^−4 BSA” value is reported as 3.92 in the assay with BSA [4], 7.38 with BSA [1] and 10.0 with BSA [5]. In addition, in assay [3], the “K·10^−4 HSA” value is 190.

`Nc1cccc(C(=O)O)c1` [3-aminobenzoic acid] gave a Kd in assay [2] of 71.4 µM. Further, the “K·10^−4 BSA” value with BSA [5] was 0.32 (SP, 310 K) [9].

Take `O=C(O)c1cccc([N+](=O)[O-])c1` [3-nitrobenzoic acid]: the Kd in assay [2] (setting [9]) was 12.8 µM.

On to `O=C(O)c1ccc(Br)cc1` [4-bromobenzoic acid], for which the “K·10^−4 BSA” value with BSA [6] was 20.42; with BSA [7] (310 K), 20.0. The Kd in assay [2] (setting [10]) is 18.5 µM.

In assay [2], `O=C(O)c1ccccc1[N+](=O)[O-]` [2-nitrobenzoic acid] showed a Kd of 47.6 µM.

`N#Cc1ccc(C(=O)O)cc1` [4-cyanobenzoic acid]: the “K·10^−4 BSA” value with BSA [7] (288 K) is 1.66 (UC, 288 K) [8].

For `O=C(O)c1ccccc1F` [2-fluorobenzoic acid], the Kd in assay [2] (setting [9]) was 30.3 µM.

As to `O=C(O)c1cccc(I)c1` [3-iodobenzoic acid], the Kd in assay [2] (setting [10]) is 19.6 µM.

Consider `Cc1ccc(C(=O)O)cc1` [4-methylbenzoic acid], for which the “K·10^−4 BSA” value is given as 3.16 in the assay on BSA [6], under 0.1 in the assay with BSA [1], 6.76 in the assay with BSA [7] (288 K) and 7.94 with BSA [5]. Also, the Kd in assay [2] is 71.4 µM. For the same molecule, the “K·10^−4 HSA” value in assay [3] was 0.35; in assay [8] it was 3.63.

Turning to `O=C(O)c1cccc(O)c1` [3-hydroxybenzoic acid], the entries for the “K·10^−4 BSA” value in the assay on BSA [1] and in the assay with BSA [5] were 0.85 and 5.01, respectively. In assay [2], this molecule gave a Kd of 52.6 µM. Moreover, in assay [3], the “K·10^−4 HSA” value was 0.34 (SF) [10].

In assay [2], `O=C(O)c1ccccc1Br` [2-bromobenzoic acid] gave a Kd of 43.5 µM. Also, in the assay on BSA [7] (310 K), the “K·10^−4 BSA” value was 3.98 (UC, 310 K) [9].

`Nc1ccccc1C(=O)O` [2-aminobenzoic acid]: in assay [2] (setting [9]), the Kd was 43.5 µM. For the same molecule, the “K·10^−4 BSA” value in the assay on BSA [5] was 0.63 (SP, 310 K) [9].

`O=C(O)c1cccc(Cl)c1` [3-chlorobenzoic acid]: in the assay on BSA [6], the “K·10^−4 BSA” value is 11.22 (ED, 310 K) [24]. In assay [2], this molecule gave a Kd of 17.2 µM.

Turning to `O=C(O)c1ccc([N+](=O)[O-])cc1` [4-nitrobenzoic acid], the “K·10^−4 BSA” value in the assay with BSA [6] is 3.09; in the assay with BSA [7] (288 K), 6.03. Also, the Kd in assay [2] was 12.3 µM. The “K·10^−4 HSA” value in assay [8] was 8.13 (UC, 288 K) [8].

Regarding `O=C(O)c1cccc(Br)c1` [3-bromobenzoic acid], the Kd in assay [2] (setting [10]) is 28.6 µM. The “K·10^−4 BSA” value in the assay with BSA [7] (310 K) is 63.1 (UC, 310 K) [9].

In assay [2], `N#Cc1ccccc1C(=O)O` [2-cyanobenzoic acid] showed a Kd of 38.5 µM.

Regarding `O=C(O)c1ccc(I)cc1` [4-iodobenzoic acid], in assay [2] (setting [10]), the Kd is 24.4 µM.

`N#Cc1cccc(C(=O)O)c1` [3-cyanobenzoic acid] had a Kd in assay [2] of 25.6 µM.

With `O=C(O)c1ccc(O)cc1` [4-hydroxybenzoic acid], the “K·10^−4 BSA” value in the assay with BSA [1] is listed as under 0.1; in the assay with BSA [7] (288 K), 0.68; with BSA [5] it was 0.79. The Kd in assay [2] was determined as 100 ± 10 µM. Besides, the entries for the “K·10^−4 HSA” value in assay [3] and in assay [8] were under 0.1 and 0.45, respectively.

On to `O=C(O)c1ccccc1` [benzoic acid], for which the “K·10^−4 BSA” value with BSA [6] is given as 1.15; with BSA [7] (288 K) it was 2.24; in the assay with BSA [5] it was 5.01. The molecule further gave a Kd in assay [2] of 52.6 µM. In addition, the “K·10^−4 HSA” value in assay [8] was 2.29 (UC, 288 K) [8].

As for `O=C(O)c1ccccc1I` [2-iodobenzoic acid], in assay [2] (setting [10]), the Kd was 30.3 µM.
